Earlier results as cited in patent US20050118222A1, “Product to combat ticks and the process for the product's preparation” (priority 2002, published 2005).

What was measured:
[1] = in vivo
[2] = test system: manure-processing insect and coleopterous flora in the soil

Substance: (4″R)-4″-epi(Acetylamino)-4″-deoxyavermectin B1 [Eprinomectin]
- applied drug eliminated through the milk (in vivo): 0.1%
- elimination through the milk, times less compared to ivermectin or moxidectin (versus ivermectin or moxidectin): 50 times
- elimination through dung [1]: 85%
- effect on manure-processing insect and coleopterous flora in the soil [2]: does not affect
